According to publication PMC12214830, “The human RIF1-Long isoform interacts with BRCA1 to promote recombinational fork repair under DNA replication stress” (Nature Communications, 2025):
Entries after “also recorded” stand apart in the source; their conditions may differ. One block for each molecule: values may come before it. Non-standard residues stand in square brackets, D forms with d. No end group written: not given here. pS = N[C@@H](COP(=O)(O)O)C(=O)O

Experiments:
[1] = test system: RIF1-BRCA1 proximity in RPE-1 cells; experiment: RIF1-BRCA1 proximity ligation assay, RPE-1 cells; format: cell-based, human
Experimental: (§1) Proximity ligation assays were performed using the Duolink In Situ PLA Fluorescence Protocol (Sigma-Aldrich, DUO92101) following the manufacturer’s instruction. Cells were grown on glass coverslips and treated as indicated for specific experiments. Cells were then permeabilized with 0.5% TritonX-100 in PBS for 10 min on ice, and fixed with 3% formaldehyde, 2% sucrose in PBS for 10 min at room temperature (RT). After fixation, coverslips were blocked in 3% BSA in PBS for 1 h at RT and incubated with primary antibodies (anti-RIF1, Bethel laboratories A300-568A, 1:1000 dilution; anti-BRCA1, Santa Cruz Biotechnologies, sc-6954, 1:200 dilution), for 1 h at RT in a humidity chamber. Primary antibodies were then washed off with PLA washing buffer A supplied in the Duolink In Situ PLA kit. Coverslips were next incubated sequentially with PLA Probes (1 h at 37 °C), ligation solution (30 min at 37 °C) and amplification solution (100 min at 37 °C), with washes by washing buffer A in between each step. At the end of incubation, coverslips were washed with washing buffer B supplied in the Duolink In Situ PLA kit. Coverslips were then mounted on glass slides with PLA Mounting medium with DAPI. Images were captured by fluorescence microscopy (Zeiss Axio Imager). PLA foci number in each nucleus were analysed by CellProfiler Software[74] with a custom-made pipeline.
For EdU labelling combined with proximity ligation assay, cells were labelled with 10 µM EdU for 15 min, washed free of EdU and next incubated with medium containing 4 mM HU medium for 4 h. Cells were then permeabilized, fixed and subjected to RIF1-BRCA1 PLA procedures. After all PLA steps, EdU detection was performed following manufacturer’s instructions in the Click-iT EdU Imaging Kit (Invitrogen, C10640).
(§2) For proximity ligation assays and immunofluorescence signal intensity measurements, when comparing between two samples, statistical significance of differences was calculated by Mann-Whitney test for non-parametric distributions using GraphPad Prism software (v.9). When comparing among three or more samples, p values were calculated by Kruskal-Wallis test for non-parametric distributions with Dunn’s multiple comparisons using GraphPad Prism software (v.9). For RIF1 foci formation analysis (Fig. 6B), p values were calculated by two-tailed Student’s t test. For nuclear BRCA1 intensity fold change analyses (Fig. 6C, D), p values were calculated by two-tailed one-sample t test using GraphPad Prism software (v.9). For RAD51 foci formation analyses (Fig. 7B, E and Supplementary Fig. 7B), p values were calculated by chi-square test. For HR Reporter assay analysis (Fig. 7G and Supplementary Fig. 7L), p values were calculated by two-tailed paired Student’s t test. For micronuclei frequency analysis (Fig. 7H), p values were calculated by one-tailed paired Student’s t test. All Student’s t tests were performed with Excel T.TEST function. Chi-square tests were performed with the online Chi-square test calculator at https://www.socscistatistics.com/tests/chisquare2/default2.aspx. Sample number n for all box-and-whisker plots and dot plots are listed in Supplementary Data 1.

[2] = test system: RIF1-L phosphoS2265; experiment: Western blot, RIF1-L phosphoS2265, HeLa cells; format: cell-based, human
Experimental: Cells were harvested in 10 mM Tris-HCl pH 7.5, 2 mM EDTA buffer and lysed with laemmli sample buffer (Bio-Rad, 1610737, supplemented with 5% β-mercaptoethanol). Samples were heated at 95 °C for 15 min and centrifuged at 13,000 × g for 15 min. Protein concentrations were measured by RC DC Protein Assay (Bio-Rad, 5000122). Equal amounts of total proteins for each sample were separated in Mini-PROTEAN TGX Stain-free Precast Gels (Bio-Rad) by SDS-PAGE. Gels were at this stage imaged with the ChemiDoc Touch Imaging System (Bio-Rad) using the ‘Protein gel – Stain free’ module to obtain stain-free gel images. Proteins on gel were transferred to PVDF membranes (Bio-Rad, 1704274) using the Trans-Blot Turbo Blotting System (Bio-Rad). Membranes were blocked in 3% BSA in TBS-T (1x TBS supplemented with 0.1% Tween-20) at RT for 1 h, followed by incubation with primary antibodies overnight at 4 °C. Membranes were washed with TBS-T and then incubated with secondary antibodies for 1 h at RT. The blots were developed with Clarity ECL reagents (Bio-Rad, 1705060) and imaged with the ChemiDoc Touch Imaging System (Bio-Rad). Primary antibodies used for western blotting include anti-RIF1 (Bethyl Laboratories, A300-568A. 1:5000); anti-RIF1-L-Phospho-S2265 (amsbio, custom. 1:5000); anti-BRCA1 (D-9) (Santa Cruz Biotechnology, sc-6954. 1:1000); anti-BARD1 (Bethyl Laboratories, A300-263A. 1:1000); anti-53BP1 (Novus Biologicals, NB100-94. 1:5000); anti-PP1α (G4) (Santa Cruz Biotechnology, sc-271762. 1:1000); anti-Tubulin (YOL1/34) (Santa Cruz Biotechnology, sc-53030. 1:4000); anti-FLAG (M2) (Sigma-Aldrich, F1804. 1:2000); anti-GFP (Chromotek, 3h9. 1:2000); anti-RFP (Chromotek, 5f8. 1:2000). Uncropped and unprocessed Western Blot images are provided in the Source Data file.

[3] = test system: RIF1-BRCA1 proximity in HeLa cells; experiment: RIF1-BRCA1 proximity ligation assay, HeLa cells; format: cell-based, human; conditions: HeLa +RIF1-L
Experimental: as §1, §2

[4] = test system: BRCA1 nuclear signal; experiment: BRCA1 nuclear immunofluorescence intensity, HeLa cells; format: cell-based, human
Experimental: Cells were grown on glass coverslips and treated as desired. Cells were then permeabilized with 0.5% TritonX-100 in PBS for 7 min on ice, and fixed with 4% w/v formaldehyde solution (Sigma HT5012) for 10 min at room temperature (RT). After fixation, coverslips were blocked with 3% BSA in PBS (RT, 1 h), incubated with primary antibodies (RT, 2 h), washed with PBS three times and incubated with secondary antibodies (RT, 1 h). Primary antibodies used for immunofluorescence include anti-γH2A.X (20E3) (Cell Signalling Technology, 9718. 1:500); anti-RPA32/RPA2 (9H8) (Abcam, ab2175. 1:200); anti-RAD51 (H92) (Santa Cruz Biotechnology, sc-8349. 1:100); anti-BrdU (B44) (BD Biosciences, 347580. 1:100); Coverslips were then mounted on glass slides with mounting medium with DAPI. Images were captured by either standard (Zeiss Axio Imager) or confocal (Zeiss LSM-880) microscopy. Fluorescence signal intensities within each nucleus were analysed by CellProfiler software with custom-made pipelines. […]
as §2, with “All Student’s t tests were performed with Excel T.TEST function. Chi-square tests were performed with the online Chi-square test calculator at https://www.socscistatistics.com/tests/chisquare2/default2.aspx. Sample number n for all box-and-whisker plots and dot plots are listed in Supplementary Data 1.” left out

[5] = test system: micronuclei; experiment: micronuclei frequency, HeLa cells; format: cell-based, human; conditions: Fig.7H
Experimental: as §2

[6] = molecular target: BRCA1 C-terminal tandem BRCT domains (UniProt P38398); experiment: fluorescence polarisation titration; conditions: reference: pS2265 peptide, untreated; sites S2265
[7] = test system: BRCA1-BRCT domain; experiment: X-ray crystal structure of peptide with BRCA1-BRCT (PDB 8RS8); format: binding, human
Experimental: For crystallographic studies, the N-terminal HIS-SUMO tag was removed from the His6-SUMO-BRCA1-BRCT2 by incubation with GST-3C protease (in house) for 12 h at 4 °C. A Superdex 75 16/60 size exclusion column (GE Healthcare) was used to purify the BRCT2 domains to homogeneity in 10 mM HEPES pH 7.5, 200 mM NaCl, 0.5 mM TCEP.
An unlabelled RIF1 pS2265 peptide (SPGSR(pS)PKFKS) (Peptide Protein Research Ltd, Bishops Waltham, UK) was mixed with the pure BRCA1-BRCT2 domains at a five molar excess prior to concentration to 15 mg/ml for use in crystallisation trials. Crystals grew in condition MORPHEUS E2 (55.5 mM MES, 44.5 mM Imidazole, 120 mM Diethylene glycol, 120 mM Triethylene-glycol, 120 mM Tetraethylene glycol, 120 mM Pentaethylene glycol, 20% (v/v) Ethylene glycol, 10% (w/v) PEG 8000) (Molecular Dimensions) and were looped before flash freezing in liquid nitrogen. Data were collected on beamline I04-1 at the Diamond Synchrotron Lightsource and the structure was determined using PHASER[70] to perform molecular replacement with PDB 4IGK as a search model before refinement using the PHENIX software package. Figures were produced using PyMOL v2.2.2.

[8] = Chk1i (PF-477736) 1 µM 24 h + HU 4 mM 24 h
[9] = Fig 4F, Chk1i (PF-477736) 1 µM 24 h + HU 4 mM 24 h
[10] = Fig S4G (repeat), Chk1i (PF-477736) 1µM + HU 4mM 24hr
[11] = ATRi (VE-821) 1 µM 24 h + HU 4 mM 24 h
[12] = Fig 4F, ATRi (VE-821) 1 µM 24 h + HU 4 mM 24 h
[13] = Fig S4G (repeat), ATRi (VE-821) 1µM + HU 4mM 24hr
[14] = Fig S4H, ATRi (VE-821) 1µM + HU 4mM 24hr

Molecule: Cn1cc(-c2[nH]c3cc(NC(=O)[C@H](N)C4CCCCC4)cc4c3c2C=NNC4=O)cn1 [PF-477736]
- RIF1-BRCA1 PLA foci formation [1, 8]: abolished PLA foci formation
- RIF1-BRCA1 PLA foci per nucleus, mean [1, 9]: 0.156
- RIF1-BRCA1 PLA foci per nucleus, median [1, 9]: 0
- RIF1-BRCA1 PLA foci per nucleus, mean [1, 10]: 0.316
- RIF1-BRCA1 PLA foci per nucleus, median [1, 10]: 0
- HU-induced reduction of phosphoS2265 signal [2, 8]: partially reversed by Chk1 inhibition

Molecule: CS(=O)(=O)c1ccc(-c2cnc(N)c(C(=O)Nc3ccccc3)n2)cc1 [VE-821]
- RIF1-BRCA1 proximity signal [1, 11]: significantly lowered the RIF1-BRCA1 proximity signal
- RIF1-BRCA1 PLA foci per nucleus, mean [1, 12]: 1.672
- RIF1-BRCA1 PLA foci per nucleus, median [1, 12]: 1
- RIF1-BRCA1 PLA foci per nucleus, mean [1, 13]: 1.661
- RIF1-BRCA1 PLA foci per nucleus, median [1, 13]: 1
- RIF1-BRCA1 PLA foci per nucleus, mean [3, 14]: 13.09
- RIF1-BRCA1 PLA foci per nucleus, median [3, 14]: 12
- RIF1-BRCA1 PLA [3, 11]: also reduced RIF1-BRCA1 PLA
- HU-induced reduction of phosphoS2265 signal [2, 11]: reversed by simultaneous ATR inhibition

Molecule: RIF1-L
- BRCA1 nuclear signal mean intensity ([4]; Exp 1): 12.65
- BRCA1 nuclear signal mean intensity ([4]; Exp 2): 11.6
- BRCA1 nuclear signal mean intensity ([4]; Exp 3): 10.09
- Micronuclei per 100 ([5]; HU, experiment 14Apr2024): 7.605
- Micronuclei per 100 ([5]; HeLa RIF1 KO + GFP-RIF1 derivative cells, HU, experiment 07Jun2024): 5.84
- Micronuclei per 100 ([5]; HeLa RIF1 KO + GFP-RIF1 derivative cells, unt, experiment 07Jun2024): 3.60
- Micronuclei per 100 ([5]; unt, experiment 14Apr2024): 3.159

- binding against the reference [6]: lost
Molecule: RIF1-Long (RIF1-L) (from UniProt Q5UIP0) λ phosphatase treated peptide

Molecule: SPGSR[pS]PKFKS [RIF1-L phospho-peptide, unlabelled RIF1 pS2265 peptide used for crystallography]
- binding mode in crystal ([7]; MORPHEUS E2): fits within the BRCT pocket of BRCA1 as expected; also recorded: positively charged amino acids K^2267 and K^2269 of RIF1-L lie adjacent to the negatively charged E^1698 BRCA1 residue
- binding mode in crystal ([7]; MORPHEUS E2, listed as RIF1-L peptide): found in the canonical phosphate binding pocket of the BRCA1 BRCTs
